Test results as given in patent US12168008B2, “Oxabicycloheptanes for modulation of immune response” (LIXTE BIOTECHNOLOGY, INC., priority 2016, dated 2024).

Legend:
CD8+ or CD4+ T cells = assay: Human allogeneic mixed lymphocyte reaction, T cells with monocyte-derived dendritic cells (Example 8); format: cell-based
Method: The effect of LB-100 on T-cells was assessed in human allogeneic mixed lymphocyte reactions, in which CD8+ or CD4+ T cells were co-cultured with […] monocyte-derived dendritic cells. […] The effect of LB-100 plus anti-PD-1 antibody was investigated on CD4+ T cells in the same assay.

Naïve CD4 cells = assay: T cell stimulation and skewing of naive CD4 cells; format: cell-based, mouse
Method: Naïve CD4 cells were isolated from mice splenocytes and activated in vitro with anti-CD3 and CD28 in the presence of TGF-β or IL4 to induce development of Treg or Th2 CD4+ cells respectively. After 72 hours, intranuclear expressions of Foxp3 or GATA3 were quantitated by flow cytometry to determine percentage of Treg or Th2 cells respectively. […] In addition, the relative proportion of Th2 and Th1 CD4+ cells was quantified by labeling for T-bet. […] Next, the functional consequence of Th1 CD4+ cell with LB-100 treatment was explored. […] This was shown with both intracellular staining (FIG. 38D) and measurement of cytokine secretion (FIG. 38E-F).
T cell stimulation and skewing—Naïve CD4 cells were isolated from mice splenocytes (StemCell). Cells were activated for 3 days using immobilized anti-CD3 (10 ug/ml) and soluble anti-CD28 (2 ug/ml). Skewing conditions were as follows: TH1, 1 .ig/mL anti-IL4, 5 ng/mL IL2, and 10 ng/mL IL12; TH2, 1 .ig/mL anti-IFN-7, 5 ng/mL IL2, and 10 ng/mL IL4; Treg, 1 .ig/mL anti-IFNγ, and 1 ig/mL anti-IL4, and 2 ng/mL TGFβ1. Bead-based multianalyte flow immunoassays (BD Bioscience) were used to measure cytokine production in the supernatant per manufacturer's instruction. Absolute cell numbers were quantified with flow cytometry using counting beads (Biolegend).

CT26 tumor = assay: CT26 syngeneic tumor model: tumor growth and survival; format: in vivo, mouse
Method: To test the hypothesis that inhibition of PP2A with LB-100 can enhance immune-mediated antitumor responses, rice were implanted with CT26 tumor cells. CT26 is a murine colon adenocarcinoma expressing low level of PD-L1 and is resistant to anti-PD1 therapy. After about 13 days, mice with tumor size between 30-100 mm^3 were randomized into four treatment groups (PBS control, LB-100 only—0.16 mg/kg, anti-PD-1 only—10 mg/kg, or a combination of both). Treatment was given every 2 days for a total of 28 days. Tumor size was assessed every two days (FIGS. 20A-C). Single agent treatment with anti-PD1 was ineffective in reducing tumor burden or increasing survival. LB-100 alone was able to increase median survival from 21 to 33 days (p=0.02). […]
Tumor Inoculation and Animal Studies—CT26 tumor cells (0.5×10^6) were injected subcutaneously in the right side of the abdomen. […] Tumor size were monitored with a digital caliper every 2-3 d and expressed as volume (length×width^2×0.5). […]
LB-100 and aPD-1 combination treatment synergistically elicit rejection of CT26 tumors: To test the hypothesis that PP2A inhibition synergizes with aPD-1 therapy in vivo in aPD-1 refractory tumors, a CT26 tumor was used, which is a murine colorectal carcinoma with high PD-L1 expression but limited response to aPD-1 therapy. […] Tumor growth was assessed every 2 days (FIG. 24A). […]

mouse B16 melanoma = assay: B16 melanoma tumor-bearing mice (FIG. 12, 17-19); format: in vivo
Method: FIG. 12. […] Treatment was started on the same day of tumor implantation. Control—PBS, Low dose—0.16 mg/kg, Medium dose—0.32 mg/kg.
FIG. 17A. CD8+CD44+ effector T cells are increased with PP2A inhibitor LB-100 treatment. Percentage of CD8+CD44+T effector cells population in tumor draining lymph node from B16 tumor bearing mice treated with LB-100 or PBS. 5 mice per group.

CN1CCN(C(=O)C2C(C(=O)O)[C@H]3CC[C@@H]2O3)CC1 (some centres unmarked) [LB-100]
IFNγ secretion in CD4+ T cells (CD8+ or CD4+ T cells): increase | T cell proliferation in CD8+ and CD4+ cells (CD8+ or CD4+ T cells): dose dependent increase | Tbet in CD4+ T cells (CD8+ or CD4+ T cells): dose dependent increase | co-stimulatory molecule OX40 expression on T cells (CD8+ or CD4+ T cells): dose dependent increase | PD-1 expression on human CD4 T cells (CD8+ or CD4+ T cells; co-cultured with monocytes derived DC): reduced PD-1 expression | frequency of GATA3 expressing cells relative to Tbet expressing cells (Naïve CD4 cells): decreased significantly | induction of Foxp3 by TGF-β (Naïve CD4 cells; 72 hours, dose dependent): significantly impaired | induction of GATA3 by IL-4 (Naïve CD4 cells; 72 hours, dose dependent): significantly impaired | TNF-α and IL2 secretion (Naïve CD4 cells; Th1 and Th2 conditions): increased | IFN-γ expression (Naïve CD4 cells; Th1 and Th2 skewing conditions): dose dependent increase | Secretion of IL4 (Naïve CD4 cells; Th2 conditions): decreased | median survival (CT26 tumor; control 21 days, treatment every 2 days): 33 days | tumor growth, single agent (CT26 tumor; mouse, in vivo): did not significantly decrease tumor growth | B16 melanoma tumor growth (mouse B16 melanoma; every two days for 8 doses from day of implantation, 0.16 and 0.32 mg/kg): reduced mouse B16 melanoma tumor growth significantly | CD8+CD44+ effector T cells in tumor draining lymph node (mouse B16 melanoma; vs PBS, 5 mice per group): increased | CD44+CD62L− CD4 effector T cells in lymph node (mouse B16 melanoma; vs PBS, 5 mice per group): Increased | CD44+CD62L− CD8 effector T cells in lymph node (mouse B16 melanoma; vs PBS, 5 mice per group): Increased
